In PMC3237054 (2011):

Key:
LPA3 (hLPA3) = molecular target: T1, LPA3 (hLPA3) (Homo sapiens, UniProt Q9UBY5); format: biochemical; settings: read-out: Ki; cho cell membranes
T1 sequence (Q9UBY5 1-353): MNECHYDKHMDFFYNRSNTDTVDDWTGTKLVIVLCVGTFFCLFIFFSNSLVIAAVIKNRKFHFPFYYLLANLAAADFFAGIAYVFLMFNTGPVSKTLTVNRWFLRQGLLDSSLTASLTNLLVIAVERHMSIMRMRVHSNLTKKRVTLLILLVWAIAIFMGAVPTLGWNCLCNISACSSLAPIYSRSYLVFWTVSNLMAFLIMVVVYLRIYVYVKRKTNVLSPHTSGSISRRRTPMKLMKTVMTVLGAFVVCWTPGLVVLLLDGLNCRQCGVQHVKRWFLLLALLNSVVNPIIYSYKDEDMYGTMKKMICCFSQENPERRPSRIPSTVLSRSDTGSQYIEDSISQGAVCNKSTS

LPA1 (hLPA1) = LPA1 (hLPA1) (Homo sapiens, UniProt Q92633); format: biochemical; settings: read-out: Ki; cell membranes
Chain of LPA1 (hLPA1) (Q92633 whole entry): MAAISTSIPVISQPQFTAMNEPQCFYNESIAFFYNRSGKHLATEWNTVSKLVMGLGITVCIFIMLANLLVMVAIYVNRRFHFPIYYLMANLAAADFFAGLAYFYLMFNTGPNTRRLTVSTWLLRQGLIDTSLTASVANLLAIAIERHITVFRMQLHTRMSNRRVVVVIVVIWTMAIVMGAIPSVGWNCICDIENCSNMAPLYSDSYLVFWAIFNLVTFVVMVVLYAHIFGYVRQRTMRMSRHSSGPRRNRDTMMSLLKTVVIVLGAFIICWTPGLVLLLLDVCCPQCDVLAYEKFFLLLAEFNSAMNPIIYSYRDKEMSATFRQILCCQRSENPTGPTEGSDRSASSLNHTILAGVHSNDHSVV

With VPC51299 [6.1] as the substance, how does the Kb (LPA3 (hLPA3)) read?
The Kb was 0.512 µM.

What about the Kb (LPA1 (hLPA1)) of the same substance?
The Kb was 0.143 µM.
